Active and inactive are the calls of the source. How the calls were made is not given here.
System: 3C-like protease (3CLpro), SARS coronavirus
Assay: SARS 3CLpro protease inhibitors, late-stage follow-up, biochemical, fluorescence, single concentration, set 4 (AID 588772)
Settings: recombinant 3CLpro, fluorogenic substrate cleavage; at 100 µM; hits give high values

SMILES | inhibition
CC(C)(C)NC(=O)C(c1cnccn1)N(C(=O)c1ccco1)c1ccc(C(C)(C)C)cc1 (stereo not drawn) | 96.2%
CC(C)(C)c1ccc(N(Cc2cccnc2)C(=O)c2cnc[nH]2)cc1 | 46.8% (inactive)
CC(C)(C)NC(=O)[C@@H](c1cccnc1)N(C(=O)c1cnc[nH]1)c1ccc(C(C)(C)C)cc1 | 47.1% (inactive)
CC(C)(C)NC(=O)[C@H](c1cccnc1)N(C(=O)c1cnc[nH]1)c1ccc(C(C)(C)C)cc1 | 97.6%
CC(C)(C)NC(=O)C(c1ccn[nH]1)N(C(=O)c1ccco1)c1ccc(C(C)(C)C)cc1 (stereo not drawn) | 6.3% (inactive)
CC(C)(C)NC(=O)C(c1cccnc1)N(C(=O)c1ccco1)c1ccc(-c2ccncc2)cc1 (stereo not drawn) | 27.8% (inactive)
CC(C)(C)NC(=O)C(c1cccnc1)N(C(=O)c1ccco1)c1ccc(Cc2ccccc2)cc1 (stereo not drawn) | 77.6%
CC(C)(C)NC(=O)C(c1cccnc1)N(C(=O)c1ccco1)c1ccc(Oc2ccccc2)cc1 (stereo not drawn) | 40.9% (inactive)
COc1cccc(Oc2ccc(N(C(=O)c3ccco3)C(C(=O)NC(C)(C)C)c3cccnc3)cc2)c1 (stereo not drawn) | 52%
CC(C)(C)NC(=O)C(c1ccnnc1)N(C(=O)c1ccco1)c1ccc(C(C)(C)C)cc1 (stereo not drawn) | 94.3%
CC(C)(C)NC(=O)C(c1cccnc1)N(C(=O)c1ccco1)c1ccc(-c2cncnc2)cc1 (stereo not drawn) | 48.6% (inactive)
Cc1noc(C)c1-c1ccc(N(C(=O)c2ccco2)C(C(=O)NC(C)(C)C)c2cccnc2)cc1 (stereo not drawn) | 85.1%
CC(C)(C)NC(=O)C(c1cccnc1)N(C(=O)c1ccc(C(F)(F)F)o1)c1ccc(C(C)(C)C)cc1 (stereo not drawn) | 17.8% (inactive)
CC(C)(C)NC(=O)C(c1cccnc1)N(C(=O)c1ccco1)c1ccc(-c2ccccc2)cc1 (stereo not drawn) | 94.8%
CC(C)(C)NC(=O)C(c1cccnc1)N(C(=O)c1cc2ccccc2o1)c1ccc(C(C)(C)C)cc1 (stereo not drawn) | 14.3% (inactive)
CC(C)(C)NC(=O)C(c1ccncc1)N(C(=O)c1ccco1)c1ccc(C(C)(C)C)cc1 (stereo not drawn) | 60.2%
Cn1cnc(C(=O)N(c2ccc(C(C)(C)C)cc2)C(C(=O)NC(C)(C)C)c2cccnc2)c1 (stereo not drawn) | 51.3%
CC(C)(C)NC(=O)C(c1ccccn1)N(C(=O)c1ccco1)c1ccc(C(C)(C)C)cc1 (stereo not drawn) | 0.7% (inactive)
CC(C)(C)NC(=O)C(c1cn[nH]n1)N(C(=O)c1ccco1)c1ccc(C(C)(C)C)cc1 (stereo not drawn) | 22.7% (inactive)
CC(C)(C)NC(=O)C(c1cccnc1)N(C(=O)c1ccco1)c1ccc(OCc2ccccc2)cc1 (stereo not drawn) | 53.2%
CC(C)(C)NC(=O)C(c1cn[nH]c1)N(C(=O)c1ccco1)c1ccc(C(C)(C)C)cc1 (stereo not drawn) | 16.1% (inactive)
Cc1ccc(C(C(=O)NC(C)(C)C)N(C(=O)c2ccco2)c2ccc(C(C)(C)C)cc2)cn1 (stereo not drawn) | -4.1% (inactive)
CC(C)(C)NC(=O)C(c1cccnc1)N(C(=O)c1ccco1)c1ccc(-c2cccc(F)c2F)cc1 (stereo not drawn) | 90.2%
CC(C)(C)NC(=O)C(c1cccnc1)N(C(=O)c1ccco1)c1ccc(-c2cccnc2)cc1 (stereo not drawn) | 64.1%
CC(C)(C)NC(=O)C(c1cnc[nH]1)N(C(=O)c1ccco1)c1ccc(C(C)(C)C)cc1 (stereo not drawn) | 22.8% (inactive)
CC(C)(C)NC(=O)C(c1cccnc1)N(C(=O)c1ccco1)c1ccc(I)cc1 (stereo not drawn) | 66.3%
CC(C)(C)NC(=O)C(c1cccnc1)N(C(=O)c1ccco1)c1ccc(-c2ccnc(F)c2)cc1 (stereo not drawn) | 40.3% (inactive)
CC(C)(C)NC(=O)C(c1cccnc1)N(C(=O)c1ccco1)c1ccc(-c2cccn2C(=O)OC(C)(C)C)cc1 (stereo not drawn) | 56.9%

Reference: PubChem BioAssay AID588772 (The Scripps Research Institute Molecular Screening Center, 2011)
